{"source": "patent US8278032B2", "about": "“Transporter protein in mammal and utilization of the same” (priority 2005, dated 2012)", "key": {"[1]": {"target": "T1, hMATE1 (Homo sapiens, UniProt Q96FL8)", "T1 sequence (Q96FL8 1-570)": "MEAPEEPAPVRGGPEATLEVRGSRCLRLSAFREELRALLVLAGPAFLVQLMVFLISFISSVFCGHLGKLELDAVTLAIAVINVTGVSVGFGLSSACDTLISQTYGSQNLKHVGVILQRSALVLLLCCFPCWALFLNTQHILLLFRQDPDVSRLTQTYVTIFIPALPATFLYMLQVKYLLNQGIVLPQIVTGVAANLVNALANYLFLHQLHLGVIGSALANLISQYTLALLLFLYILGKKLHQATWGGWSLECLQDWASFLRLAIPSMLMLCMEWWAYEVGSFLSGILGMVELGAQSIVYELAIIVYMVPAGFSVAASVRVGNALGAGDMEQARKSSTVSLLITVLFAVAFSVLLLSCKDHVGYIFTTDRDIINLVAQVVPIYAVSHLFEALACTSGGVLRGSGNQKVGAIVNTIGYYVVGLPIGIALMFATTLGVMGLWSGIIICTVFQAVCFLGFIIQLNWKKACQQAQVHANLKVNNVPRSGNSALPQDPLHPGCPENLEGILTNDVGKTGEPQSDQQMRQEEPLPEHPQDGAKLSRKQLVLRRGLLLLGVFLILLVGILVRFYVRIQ", "assay": "Inhibition of RI-labeled TEA uptake in HEK293 cells expressing hMATE1", "details": "for Inhibition of TEA uptake activity (in words, summary of Table 1): MATE1 expressing HEK293 cells, 50 μM TEA, pH 8.0"}, "[2]": {"target": "T2, mMATE1 (Mus musculus, UniProt Q8K0H1)", "T2 construct": "expressed in transfected cells; host or cells: HEK293", "T2 sequence (Q8K0H1 with tags, fused parts or gaps)": "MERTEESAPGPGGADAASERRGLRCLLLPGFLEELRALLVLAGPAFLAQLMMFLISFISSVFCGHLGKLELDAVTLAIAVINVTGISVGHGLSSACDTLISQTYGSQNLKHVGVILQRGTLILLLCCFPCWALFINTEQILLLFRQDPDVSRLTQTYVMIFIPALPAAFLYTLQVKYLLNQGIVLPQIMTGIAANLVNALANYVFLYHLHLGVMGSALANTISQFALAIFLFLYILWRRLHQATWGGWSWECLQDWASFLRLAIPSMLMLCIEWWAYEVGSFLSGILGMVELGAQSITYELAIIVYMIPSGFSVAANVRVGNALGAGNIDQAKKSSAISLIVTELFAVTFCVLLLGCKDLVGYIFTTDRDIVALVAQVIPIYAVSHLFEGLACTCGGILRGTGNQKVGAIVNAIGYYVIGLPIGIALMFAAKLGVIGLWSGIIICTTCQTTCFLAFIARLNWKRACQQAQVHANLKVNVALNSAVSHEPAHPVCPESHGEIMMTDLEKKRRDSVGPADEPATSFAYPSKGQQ", "assay": "Inhibition of RI-labeled TEA uptake in HEK293 cells expressing mMATE1;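 also: transfected HEK293 cells held 5 min at 37 °C before tracer addition, uptake read as radioactivity retained on a 0.45-µm membrane filter, mean ± SD of three to nine experiments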", "type": "cell-based", "details": "for remaining activity at 1000 µM: compound 1 mM"}, "[3]": {"details": "compound 1 mM, 50 μM RI-labeled TEA, pH 8.0, HEK293 cells expressing hMATE1"}, "[4]": {"details": "50 μM RI-labeled TEA, pH 8.0, HEK293 cells expressing mMATE1, read-out: TEA uptake activity percent taking the level with addition of no compound as 100% (% ± S.D.)"}, "[5]": {"details": "compound 0.1 mM, 50 μM RI-labeled TEA, pH 8.0, HEK293 cells expressing hMATE1"}, "[6]": {"details": "HEK293, pH 8, read-out: TEA uptake activity percent taking the level with addition of no compound as 100% (% ± S.D.)"}, "[7]": {"details": "compound 0.1 mM, 50 μM RI-labeled TEA, pH 8.0, HEK293 cells expressing mMATE1, read-out: TEA uptake activity percent taking the level with addition of no compound as 100% (% ± S.D.)"}, "[8]": {"details": "compound 0.01 mM, 50 μM RI-labeled TEA, pH 8.0, HEK293 cells expressing hMATE1"}, "[9]": {"details": "compound 10 mM, 50 μM RI-labeled TEA, pH 8.0, HEK293 cells expressing mMATE1"}}, "note": "Read-outs that look alike come from different tables or passages of the source.", "data": [{"compound": "CCCN(CCC)S(=O)(=O)c1ccc(C(=O)O)cc1", "note": "[Probenecid]", "values": [{"measurement": "TEA uptake activity percent taking the level with addition of no compound as 100% (% ± S.D.)", "setting": "[1]; [3]", "value": "108.5 ± 7.9", "unit": "%"}, {"measurement": "remaining activity at 1000 µM", "setting": "[2]; [4]", "value": "93.7 ± 11.9", "unit": "%"}]}, {"compound": "CCN(CC)CCNC(=O)c1ccc(N)cc1", "note": "[Procainamide]", "values": [{"measurement": "TEA uptake activity percent taking the level with addition of no compound as 100% (% ± S.D.)", "setting": "[1]; [5]", "value": "62.6 ± 0.8", "unit": "%"}, {"measurement": "remaining activity at 100 µM", "setting": "[2]; [6]", "value": "65.7 ± 8.2", "unit": "%"}]}, {"compound": "CC(=O)[C@H]1CC[C@H]2[C@@H]3CCC4=CC(=O)CC[C@]4(C)[C@H]3CC[C@]12C", "note": "[Progesterone]", "values": [{"measurement": "Inhibition of TEA uptake activity (in words, summary of Table 1)", "setting": "[1]", "value": "inhibited"}, {"measurement": "TEA uptake activity percent taking the level with addition of no compound as 100% (% ± S.D.)", "setting": "[1]; [5]", "value": "31.7 ± 5.6", "unit": "%"}, {"measurement": "remaining activity at 100 µM", "setting": "[2]; [7]", "value": "9.3 ± 1.6", "unit": "%"}]}, {"compound": "O=c1c(O)c(-c2ccc(O)c(O)c2)oc2cc(O)cc(O)c12", "note": "[Quercetin]", "values": [{"measurement": "Inhibition of TEA uptake activity (in words, summary of Table 1)", "setting": "[1]", "value": "inhibited"}, {"measurement": "TEA uptake activity percent taking the level with addition of no compound as 100% (% ± S.D.)", "setting": "[1]; [5]", "value": "28.2 ± 3.1", "unit": "%"}, {"measurement": "remaining activity at 100 µM", "setting": "[2]; [7]", "value": "47.1 ± 0.1", "unit": "%"}]}, {"compound": "C=C[C@H]1C[N@@]2CC[C@H]1C[C@@H]2[C@@H](O)c1ccnc2ccc(OC)cc12", "note": "[Quinidine]", "values": [{"measurement": "Inhibition of TEA uptake activity (in words, summary of Table 1)", "setting": "[1]", "value": "strongly inhibited"}, {"measurement": "TEA uptake activity percent taking the level with addition of no compound as 100% (% ± S.D.)", "setting": "[1]; [8]", "value": "35.0 ± 2.1", "unit": "%"}, {"measurement": "TEA uptake activity percent taking the level with addition of no compound as 100% (% ± S.D.)", "setting": "[1]; compound 0.05 mM, 50 μM RI-labeled TEA, pH 8.0, HEK293 cells expressing hMATE1", "value": "5.1 ± 8.9", "unit": "%"}, {"measurement": "TEA uptake activity percent taking the level with addition of no compound as 100% (% ± S.D.)", "setting": "[1]; [5]", "value": "0.0 ± 4.2", "unit": "%"}, {"measurement": "remaining activity at 10 µM", "setting": "[2]; compound 0.01 mM, 50 μM RI-labeled TEA, pH 8.0, HEK293 cells expressing mMATE1, read-out: TEA uptake activity percent taking the level with addition of no compound as 100% (% ± S.D.)", "value": "74.7 ± 9.8", "unit": "%"}, {"measurement": "remaining activity at 50 µM", "setting": "[2]; compound 0.05 mM, 50 μM RI-labeled TEA, pH 8.0, HEK293 cells expressing mMATE1, read-out: TEA uptake activity percent taking the level with addition of no compound as 100% (% ± S.D.)", "value": "50.3 ± 5.4", "unit": "%"}, {"measurement": "remaining activity at 100 µM", "setting": "[2]; [7]", "value": "26.6 ± 7.3", "unit": "%"}]}, {"compound": "O=C(O)c1ccccc1O", "note": "[Salicylate]", "values": [{"measurement": "TEA uptake activity percent taking the level with addition of no compound as 100% (% ± S.D.)", "setting": "[1]; pH 8", "value": "97.8 ± 4.8", "unit": "%"}, {"measurement": "TEA uptake activity percent taking the level with addition of no compound as 100% (% ± S.D.)", "setting": "[2]; [9]", "value": "92.4 ± 4.3", "unit": "%"}]}, {"compound": "O=C(O)CCC(=O)O", "note": "[Succinate]", "values": [{"measurement": "TEA uptake activity percent taking the level with addition of no compound as 100% (% ± S.D.)", "setting": "[1]; compound 10 mM, 50 μM RI-labeled TEA, pH 8.0, HEK293 cells expressing hMATE1", "value": "108.1 ± 4.2", "unit": "%"}, {"measurement": "TEA uptake activity percent taking the level with addition of no compound as 100% (% ± S.D.)", "setting": "[2]; [9]", "value": "95.1 ± 6.3", "unit": "%"}]}, {"compound": "C[C@]12CC[C@H]3[C@@H](CCC4=CC(=O)CC[C@@]43C)[C@@H]1CC[C@@H]2O", "note": "[Testosterone]", "values": [{"measurement": "Inhibition of TEA uptake activity (in words, summary of Table 1)", "setting": "[1]", "value": "inhibited"}, {"measurement": "TEA uptake activity percent taking the level with addition of no compound as 100% (% ± S.D.)", "setting": "[1]; compound 0.001 mM, 50 μM RI-labeled TEA, pH 8.0, HEK293 cells expressing hMATE1", "value": "99.6 ± 4.3", "unit": "%"}, {"measurement": "TEA uptake activity percent taking the level with addition of no compound as 100% (% ± S.D.)", "setting": "[1]; [8]", "value": "64.5 ± 14.7", "unit": "%"}, {"measurement": "TEA uptake activity percent taking the level with addition of no compound as 100% (% ± S.D.)", "setting": "[1]; [5]", "value": "38.8 ± 3.2", "unit": "%"}, {"measurement": "remaining activity at 1 µM", "setting": "[2]; [6]", "value": "67 ± 8.7", "unit": "%"}, {"measurement": "remaining activity at 10 µM", "setting": "[2]; [6]", "value": "44.7 ± 3", "unit": "%"}, {"measurement": "remaining activity at 100 µM", "setting": "[2]; [6]", "value": "11.5 ± 1.1", "unit": "%"}]}, {"compound": "O=c1[nH]c(=O)c2[nH]c(=O)[nH]c2[nH]1", "note": "[Uric acid]", "values": [{"measurement": "Inhibition of TEA uptake activity (in words, summary of Table 1)", "setting": "[1]", "value": "not inhibited"}, {"measurement": "TEA uptake activity percent taking the level with addition of no compound as 100% (% ± S.D.)", "setting": "[1]; [3]", "value": "107.8 ± 2.7", "unit": "%"}, {"measurement": "remaining activity at 1000 µM", "setting": "[2]; [4]", "value": "109 ± 6.4", "unit": "%"}]}, {"compound": "Rhodamine 123 [Rhodamine123]", "values": [{"measurement": "Inhibition of TEA uptake activity (in words, summary of Table 1)", "setting": "[1]", "value": "inhibited"}, {"measurement": "TEA uptake activity percent taking the level with addition of no compound as 100% (% ± S.D.)", "setting": "[1]; [8]", "value": "5.0 ± 6.4", "unit": "%"}, {"measurement": "TEA uptake activity percent taking the level with addition of no compound as 100% (% ± S.D.)", "setting": "[2]; compound 0.01 mM, 50 μM RI-labeled TEA, pH 8.0, HEK293 cells expressing mMATE1", "value": "0.5 ± 6.2", "unit": "%"}]}]}
